Data from patent US10919843B2, “Cannabidiol derivatives as inhibitors of the HIF prolyl hydroxylases activity” (priority 2017, dated 2021).

Key:
HIF-1α [1] = assay: HIF-1α transactivation assay in NIH-3T3-EPO-Luc cells; assay type: cell-based; settings: for EC50: read-out: Potency EC50 HIF-1α; for Efficacy HIF-1α (IRA coefficient): relative to 150 μM DFX
Experimental: (§1) To investigate the biological activities of the different compounds, HIF-1α transactivation assays were performed either in NIH-3T3-EPO-Luc cells (Table 1) or in HaCaT-EPO-luc cells (Table 2). The NIH3T3-EPO-luc and HaCaT-EPO-luc cells have been stably transfected with the plasmid Epo-Luc plasmid. The EPO-Hypoxia Response Element (HRE)-luciferase reporter plasmid contains three copies of the HRE consensus sequence from the promoter of the erythropoietin gene fused to the luciferase gene.
NIH3T3-EPO-luc cells were maintained at 37° C. in a humidified atmosphere containing 5% CO2 in DMEM supplemented with 10% fetal calf serum (FBS), and 1% (v/v) penicillin/streptomycin. Deferoxamine (DFX) was purchased from Sigma-Aldrich (USA). Cells (1×10^4/well in 96-well plates) were seeded the day before the assay. The next day, the cells were stimulated with increasing concentrations of either Cannabidiol (CBD), VCE-004 or compounds II to X. After six hours of stimulation the cells were lysed in 25 mM Tris-phosphate pH 7.8, 8 mM MgCl2, 1 mM DTT, 1% Triton X-100, and 7% glycerol during 15 min at RT in a horizontal shaker. Luciferase activity was measured using a microplate luminometer (Berthold) following the instructions of the luciferase assay kit (Promega, Madison. Wis., USA).
(§2) HaCaT-EPO-Luc cells were maintained at 37° C. in a humidified atmosphere containing 5% CO2 in DMEM supplemented with 10% fetal calf serum (FBS), and 1% (v/v) penicillin/streptomycin. The cells (1×10^5/well in 24-well plates) were seeded the day before the assay and then stimulated with increasing concentrations of either Cannabidiol (CBD), VCE-004 or compounds II to X. After six hours of stimulation the cells were lysed in 25 mM Tris-phosphate pH 7.8, 8 mM MgCi2, 1 mM DTT, 1% Triton X-100, and 7% glycerol during 15 min at RT in a horizontal shake. Luciferase activity was measured in the cell lysates as indicated for NIH3T3-EPO-Luc cells. The RLUs are calculated and the EC50 and IRA (Intrinsic relative activity) values in both cell lines were determined relative to 150 μM deferoxamine (DFX) using the following equation: IRA coefficient=(EC50-DFX×Emax)/(EC50×Emax-DFX), where EC50 and Emax denote EC50 and Emax of the agonist, and EC50-DFX and Emax-DFX denote EC50 and Emax values of the standard agonist DFX (Table 1 and 2).

HIF-1α [2] = assay: HIF-1α transactivation assay in HaCaT-EPO-luc cells; assay type: cell-based; settings: for EC50: read-out: Potency EC50 HIF-1α; for Efficacy HIF-1α (IRA coefficient): relative to 150 μM DFX
Experimental: as §1, §2

[3] = NIH-3T3-EPO-Luc cells, 6 h stimulation
[4] = HaCaT-EPO-Luc cells, 6 h stimulation

For `C=C(C)[C@@H]1CCC(C)=C[C@H]1C1=C(O)C(=O)C(CCCCC)=C(NCc2ccccc2)C1=O` [Compound VIII], which EC50 (HIF-1α [1]; 6 h) is on record?
Its EC50 is 2600 nM.

And the EC50 (HIF-1α [2]; 6 h)?
Its EC50 is 1400 nM.

`C=C(C)[C@@H]1CCC(C)=C[C@H]1C1=C(O)C(=O)C(CCCCC)=C(NC(C)C)C1=O` [Compound VII] was tested. Which EC50 (HIF-1α [1]; 6 h) did it give?
Its EC50 is 2900 nM.

What about the “Efficacy HIF-1α (IRA coefficient)” value (HIF-1α [1]; [3]) of the same compound?
Its value is 0.68.

What about the EC50 (HIF-1α [2]; 6 h) of the same compound?
Its EC50 is 5500 nM.

What about the “Efficacy HIF-1α (IRA coefficient)” value (HIF-1α [2]; [4]) of the same compound?
The value was 2.3.

What does the source list for `C=C(C)[C@@H]1CCC(C)=C[C@H]1C1=C(O)C(=O)C(CCCCC)=C(NC)C1=O` [Compound VI]?
EC50 (HIF-1α [1]; 6 h): 2800 nM; Efficacy HIF-1α (IRA coefficient) (HIF-1α [1]; [3]): 0.61; EC50 (HIF-1α [2]; 6 h): 4000 nM; Efficacy HIF-1α (IRA coefficient) (HIF-1α [2]; [4]): 3.02

What does the source list for `C=C(C)[C@@H]1CCC(C)=C[C@H]1C1=C(O)C(=O)C(CCCCC)=C(NCCCC)C1=O` [Compound V]?
EC50 (HIF-1α [1]; 6 h): 1800 nM; Efficacy HIF-1α (IRA coefficient) (HIF-1α [1]; [3]): 0.85; EC50 (HIF-1α [2]; 6 h): 1900 nM; Efficacy HIF-1α (IRA coefficient) (HIF-1α [2]; [4]): 5.01

Which EC50 (HIF-1α [1]; 6 h) does the source give for `C=C(C)[C@@H]1CCC(C)=C[C@H]1C1=C(O)C(=O)C(CCCCC)=C(NCCCCC)C1=O` [III] here?
Its EC50 is 3600 nM.

And the “Efficacy HIF-1α (IRA coefficient)” value (HIF-1α [1]; [3])?
The value was 0.28.

What about the “Efficacy HIF-1α (IRA coefficient)” value (HIF-1α [2]; [4]) of the same compound?
The value was 5.84.

What about the EC50 (HIF-1α [2]; [4]) of the same compound?
Its EC50 is 1700 nM.

`C=C(C)[C@@H]1CCC(C)=C[C@H]1C1=C(O)C(=O)C(CCCCC)=C(NCC)C1=O` [II] was tested. Which EC50 (HIF-1α [1]; 6 h) did it give?
The EC50 was 4300 nM.

What about the “Efficacy HIF-1α (IRA coefficient)” value (HIF-1α [1]; [3]) of the same compound?
Its value is 0.46.

And the EC50 (HIF-1α [2]; 6 h)?
The EC50 was 3200 nM.

What about the “Efficacy HIF-1α (IRA coefficient)” value (HIF-1α [2]; [4]) of the same compound?
The value was 3.87.

With `C=C(C)[C@@H]1CCC(C)=C[C@H]1C1=C(O)C(=O)C(CCCCC)=C(NCC(C)C)C1=O` [IV] as the compound, how does the EC50 (HIF-1α [1]; 6 h) read?
Its EC50 is 3200 nM.

What about the “Efficacy HIF-1α (IRA coefficient)” value (HIF-1α [1]; [3]) of the same compound?
The value was 0.61.

What about the EC50 (HIF-1α [2]; 6 h) of the same compound?
The EC50 was 1600 nM.

And the “Efficacy HIF-1α (IRA coefficient)” value (HIF-1α [2]; [4])?
The value was 5.64.

With `C=C(C)[C@@H]1CCC(C)=C[C@H]1C1=C(O)C(=O)C(CCCCC)=C(NCC(C)(C)C)C1=O` [IX] as the compound, how does the EC50 (HIF-1α [1]; 6 h) read?
Its EC50 is 2500 nM.

What about the EC50 (HIF-1α [2]; 6 h) of the same compound?
Its EC50 is 1400 nM.

`C=C(C)[C@@H]1CCC(C)=C[C@H]1C1=C(O)C(=O)C(CCCCC)=C(NCCC(C)C)C1=O` [IX] was tested. Which “Efficacy HIF-1α (IRA coefficient)” value (HIF-1α [1]; [3]) did it give?
Its value is 0.8.

What about the “Efficacy HIF-1α (IRA coefficient)” value (HIF-1α [2]; [4]) of the same compound?
Its value is 8.64.

How did the “Efficacy HIF-1α (IRA coefficient)” value (HIF-1α [1]; [3]) turn out when `C=C(C)[C@@H]1CCC(C)=C[C@H]1C1=C(O)C(=O)C(CCCCC)=C(NCCC(C)C)C1=O` [X] was run?
Its value is 0.29.

And the EC50 (HIF-1α [1]; [3])?
The EC50 was 3300 nM.

What about the “Efficacy HIF-1α (IRA coefficient)” value (HIF-1α [2]; [4]) of the same compound?
Its value is 10.35.

What about the EC50 (HIF-1α [2]; [4]) of the same compound?
The EC50 was 1200 nM.
